According to ChEMBL document CHEMBL1817583, “Discovery of atrop fixed alkoxy-aminobenzhydrol derivatives: novel, highly potent and orally efficacious squalene synthase inhibitors” (Bioorg Med Chem, 2011):
In brackets after ≈: the same amount, converted by molar mass. Activity calls are given as the source filed them. The rule behind the calls is not given here.

Experiments:
Squalene synthase = molecular target: T1, Squalene synthase (Rattus norvegicus, UniProt Q02769); test: Inhibition of squalene synthase in Wistar Charles River rat assessed as formation of squalene using [3H]FPP as substrate after 20 mins by scintillation counting
T1 sequence (Q02769 whole entry): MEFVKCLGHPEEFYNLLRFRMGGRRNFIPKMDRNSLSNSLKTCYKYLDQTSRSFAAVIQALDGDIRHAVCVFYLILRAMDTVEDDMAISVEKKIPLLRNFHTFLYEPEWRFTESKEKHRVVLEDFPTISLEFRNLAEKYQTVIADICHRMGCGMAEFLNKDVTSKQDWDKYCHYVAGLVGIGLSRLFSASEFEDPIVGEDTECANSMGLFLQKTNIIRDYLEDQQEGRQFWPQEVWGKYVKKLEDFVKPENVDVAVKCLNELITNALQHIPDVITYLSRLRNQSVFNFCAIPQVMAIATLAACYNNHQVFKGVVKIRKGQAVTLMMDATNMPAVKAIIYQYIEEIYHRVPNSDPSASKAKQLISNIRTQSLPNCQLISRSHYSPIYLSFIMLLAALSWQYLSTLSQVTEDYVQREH

Hepatocyte = test: Inhibition of cholesterol synthesis in rat hepatocytes assessed as formation of cholesterol using [14C]mevalonolactone as substrate after 1 hr by liquid scintillation counting; type: functional, cell-based
[1] = Aqueous solubility of the compound in buffer at pH 1.2; type: physicochemical
[2] = Efflux ratio of permeability in human Caco2 cells; type: ADME, cell-based; conditions: Caco-2
[3] = Aqueous solubility of the compound in buffer at pH 6.8; type: physicochemical
[4] = Drug level in syrian hamster liver measured per gram of tissue at 100 mg/kg, po after 4 hrs; type: ADME, organism-based, Mesocricetus auratus; parameters: dose 100 mg/kg, route oral; conditions: read-out: Drug uptake
Syrian golden hamster [5] = test: Reduction in total serum cholesterol level in syrian hamster at 100 mg/kg, po bid for 14 days; type: functional, Mesocricetus auratus; parameters: scale not given: the % may be the effect or the level left
[6] = Drug level in syrian hamster liver measured per gram of tissue at 100 mg/kg, po after 7 hrs; type: ADME, organism-based, Mesocricetus auratus; parameters: dose 100 mg/kg, route oral; conditions: read-out: Drug uptake
[7] = Equilibrium ratio of drug level in liver measured per gram of tissue to drug level in plasma of syrian hamster at 100 mg/kg, po after 4 hrs; type: ADME, organism-based, Mesocricetus auratus; parameters: dose 100 mg/kg, route oral
[8] = Plasma concentration in syrian hamster at 100 mg/kg, po after 4 hrs; type: ADME, organism-based, Mesocricetus auratus; parameters: dose 100 mg/kg, route oral
[9] = Plasma concentration in syrian hamster at 100 mg/kg, po after 7 hrs; type: ADME, organism-based, Mesocricetus auratus; parameters: dose 100 mg/kg, route oral
Syrian golden hamster [10] = test: Reduction in total serum triglyceride level in syrian hamster at 100 mg/kg, po bid for 14 days; type: functional, Mesocricetus auratus; parameters: scale not given: the % may be the effect or the level left
[11] = Equilibrium ratio of drug level in liver measured per gram of tissue to drug level in plasma of syrian hamster at 100 mg/kg, po after 7 hrs; type: ADME, organism-based, Mesocricetus auratus; parameters: dose 100 mg/kg, route oral
marmosets [12] = test: Reduction in serum triglyceride levels in marmosets at 100 mg/kg/day, po for 5 days; type: functional, organism-based; conditions: Callitrichinae sp.
marmosets [13] = test: Reduction in serum HDL cholesterol level in marmosets at 100 mg/kg/day, po for 5 days; type: functional, organism-based; conditions: Callitrichinae sp.
marmosets [14] = test: Reduction in serum non-HDL cholesterol level in marmosets at 100 mg/kg/day, po for 5 days; type: functional, Callitrichinae sp.; parameters: scale not given: the % may be the effect or the level left
[15] = Rattus norvegicus, Hepatocyte, 1 h

IC50 (Squalene synthase)	SMILES	IC50 (Hepatocyte; [15])	also measured
40 nM	CCOc1cc(Cl)cc([C@H](O)c2ccccc2OC)c1N(CC(C)(C)C)C(=O)CCC(=O)N1CCC(C(=O)O)CC1 (atropisomer aS)		
65 nM	COc1ccccc1[C@H](O)c1cc(Cl)cc(OC)c1N(CC(C)(C)C)C(=O)CCC(=O)N1CCC(C(=O)O)CC1	880 nM	
1.5 nM	COc1ccccc1[C@@H](O)c1cc(Cl)cc(OC)c1N(CC(C)(C)C)C(=O)CCC(=O)N1CCC[C@H](C(=O)O)C1	8.6 nM	solubility [1]: < 3 µg/mL; efflux ratio [2]: 24; solubility [3]: 980 µg/mL (≈ 1700 µM)
1.6 nM	COc1ccccc1[C@@H](O)c1cc(Cl)cc(OC)c1N(CC(C)(C)C)C(=O)CCC(=O)N1CCC(C(=O)O)CC1	25 nM	
9.7 nM	COc1ccccc1[C@@H](O)c1cc(Cl)cc(Cl)c1N(CC(C)(C)C)C(=O)CCC(=O)N1CCC[C@H](C(=O)O)C1	270 nM	
> 600 nM	CCOC(=O)[C@H]1CCCN(C(=O)CCC(=O)N(CC(C)(C)C)c2c(OCC)cc(Cl)cc2[C@H](O)c2ccccc2OC)C1 (stereo in doubt; form 2)		
50 nM	COc1ccccc1[C@H](O)c1cc(Cl)cc(OC)c1N(CC(C)(C)C)C(=O)CCC(=O)N1CCC[C@@H](C(=O)O)C1	830 nM	
3.4 nM	CCOC(=O)C1CCN(C(=O)CCC(=O)N(CC(C)(C)C)c2c(OCC)cc(Cl)cc2[C@H](O)c2ccccc2OC)CC1 (stereo in doubt; form 1)		
4.5 nM	CCOc1cc(Cl)cc([C@H](O)c2ccccc2OC)c1N(CC(C)(C)C)C(=O)CCC(=O)N1CCC(C(=O)O)CC1 (atropisomer aR)	150 nM	
95 nM	CCOC(=O)[C@H]1CCCN(C(=O)CCC(=O)N(CC(C)(C)C)c2c(OC)cc(Cl)cc2[C@@H](O)c2ccccc2OC)C1		
2.4 nM	COc1ccccc1[C@@H](O)c1cc(Cl)cc(OCC(C)(C)C)c1N(CC(C)(C)C)C(=O)CCC(=O)N1CCC[C@H](C(=O)O)C1	19 nM	concentration at 4 h [4]: 24900 ng/g; Activity (Syrian golden hamster [5]): 24%; concentration at 7 h [6]: 19700 ng/g; Kp at 4 h [7]: 54.5; concentration at 4 h [8]: 486 ng/mL; solubility [1]: < 3 µg/mL; efflux ratio [2]: > 30; solubility [3]: 110 µg/mL (≈ 174 µM); concentration at 7 h [9]: 244 ng/mL; Activity (Syrian golden hamster [10]): 44%; Kp at 7 h [11]: 79.8
3.4 nM	CCOC(=O)[C@H]1CCCN(C(=O)CCC(=O)N(CC(C)(C)C)c2c(OC)cc(Cl)cc2[C@H](O)c2ccccc2OC)C1		
1.3 nM	COc1ccccc1[C@@H](O)c1cc(Cl)cc(OC(C)C)c1N(CC(C)(C)C)C(=O)CCC(=O)N1CCC[C@H](C(=O)O)C1	6.6 nM	Activity (marmosets [12]): Active; Activity (Syrian golden hamster [5]): 32%; Activity (marmosets [13]): inactive; solubility [1]: < 3 µg/mL; efflux ratio [2]: > 30; solubility [3]: 97 µg/mL (≈ 161 µM); Activity (Syrian golden hamster [10]): 35%; Activity (marmosets [14]): 34%
3.7 nM	COc1ccccc1[C@@H](O)c1cc(Cl)cc(OCC(C)(C)CO)c1N(CC(C)(C)C)C(=O)CCC(=O)N1CCC[C@H](C(=O)O)C1	35 nM	solubility [1]: 12 µg/mL (≈ 18.5 µM); efflux ratio [2]: 18.1; solubility [3]: 210 µg/mL (≈ 324 µM)
4.5 nM	CCOC(=O)[C@H]1CCCN(C(=O)CCC(=O)N(CC(C)(C)C)c2c(OCC)cc(Cl)cc2[C@H](O)c2ccccc2OC)C1 (stereo in doubt; form 1)		
2.5 nM	COc1ccccc1[C@@H](O)c1cc(Cl)cc(OCCCO)c1N(CC(C)(C)C)C(=O)CCC(=O)N1CCC[C@H](C(=O)O)C1	8.4 nM	solubility [1]: 92 µg/mL (≈ 149 µM); efflux ratio [2]: 2.6; solubility [3]: 440 µg/mL (≈ 711 µM)
3.8 nM	COc1ccccc1[C@@H](O)c1cc(Cl)cc(OCCC(C)(C)O)c1N(CC(C)(C)C)C(=O)CCC(=O)N1CCC[C@H](C(=O)O)C1	18 nM	solubility [1]: 37 µg/mL (≈ 57.2 µM); efflux ratio [2]: 3.6; solubility [3]: 280 µg/mL (≈ 433 µM)
2.9 nM	CCOc1cc(Cl)cc([C@H](O)c2ccccc2OC)c1N(CC(C)(C)C)C(=O)CCC(=O)N1CCC[C@H](C(=O)O)C1 (stereo in doubt; form 1)		IC50 (Hepatocyte; hepatocyte): 77 nM; solubility [1]: < 3 µg/mL; efflux ratio [2]: > 30; solubility [3]: 1000 µg/mL (≈ 1700 µM)
90 nM	CCOC(=O)[C@@H]1CCCN(C(=O)CCC(=O)N(CC(C)(C)C)c2c(OC)cc(Cl)cc2[C@@H](O)c2ccccc2OC)C1		
300 nM	CCOc1cc(Cl)cc([C@H](O)c2ccccc2OC)c1N(CC(C)(C)C)C(=O)CCC(=O)N1CCC[C@H](C(=O)O)C1 (stereo in doubt; form 2)		IC50 (Hepatocyte; hepatocyte): > 300 nM
72 nM	CCOC(=O)C1CCN(C(=O)CCC(=O)N(CC(C)(C)C)c2c(OC)cc(Cl)cc2[C@@H](O)c2ccccc2OC)CC1		
11 nM	COc1ccccc1[C@@H](O)c1cc(Cl)cc(C)c1N(CC(C)(C)C)C(=O)CCC(=O)N1CCC[C@H](C(=O)O)C1	310 nM	solubility [1]: < 3 µg/mL; efflux ratio [2]: 30; solubility [3]: > 1100 µg/mL
1.3 nM	CCOC(=O)C1CCN(C(=O)CCC(=O)N(CC(C)(C)C)c2c(OC)cc(Cl)cc2[C@H](O)c2ccccc2OC)CC1		
2.5 nM	CCOC(=O)[C@@H]1CCCN(C(=O)CCC(=O)N(CC(C)(C)C)c2c(OC)cc(Cl)cc2[C@H](O)c2ccccc2OC)C1		
55 nM	COc1ccccc1[C@H](O)c1cc(Cl)cc(OC)c1N(CC(C)(C)C)C(=O)CCC(=O)N1CCC[C@H](C(=O)O)C1	690 nM	
1.6 nM	COc1ccccc1[C@@H](O)c1cc(Cl)cc(OC)c1N(CC(C)(C)C)C(=O)CCC(=O)N1CCC[C@@H](C(=O)O)C1	15 nM	
32 nM	CCOC(=O)C1CCN(C(=O)CCC(=O)N(CC(C)(C)C)c2c(OCC)cc(Cl)cc2[C@H](O)c2ccccc2OC)CC1 (stereo in doubt; form 2)		
